{
  "source": "ChEMBL document CHEMBL5370649",
  "about": "“Novel Coumarin Derivatives Inhibit the Quorum Sensing System and Iron Homeostasis as Antibacterial Synergists against Pseudomonas aeruginosa” (J Med Chem, 2023)",
  "key": {"[1]": {"molecular_target": "T1, Transcriptional regulator MvfR (Pseudomonas aeruginosa PA14) (UniProt A0A072ZLE6)", "T1 sequence (whole entry)": "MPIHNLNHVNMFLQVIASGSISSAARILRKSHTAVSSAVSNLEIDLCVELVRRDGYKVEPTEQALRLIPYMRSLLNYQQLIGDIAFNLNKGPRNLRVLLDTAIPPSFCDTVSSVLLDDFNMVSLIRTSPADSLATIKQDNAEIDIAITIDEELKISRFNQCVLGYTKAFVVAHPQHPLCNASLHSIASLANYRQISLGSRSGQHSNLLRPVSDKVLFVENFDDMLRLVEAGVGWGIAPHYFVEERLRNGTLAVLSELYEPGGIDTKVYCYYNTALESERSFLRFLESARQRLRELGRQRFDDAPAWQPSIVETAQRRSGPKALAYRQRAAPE", "assay": "Inhibition of PqsR-mediated quorum sensing system in Pseudomonas aeruginosa PAO1 assessed as inhibition of pyocyanin production at 1.25 to 20 uM incubated for 24 hrs by absorbance based assay", "details": "dose 1.25-20 µM"}, "[2]": {"molecular_target": "T2, HTH-type quorum-sensing regulator RhlR (Pseudomonas aeruginosa (strain ATCC 15692 / PAO1 / 1C / PRS 101 / LMG12228)) (UniProt P54292)", "T2 sequence (whole entry)": "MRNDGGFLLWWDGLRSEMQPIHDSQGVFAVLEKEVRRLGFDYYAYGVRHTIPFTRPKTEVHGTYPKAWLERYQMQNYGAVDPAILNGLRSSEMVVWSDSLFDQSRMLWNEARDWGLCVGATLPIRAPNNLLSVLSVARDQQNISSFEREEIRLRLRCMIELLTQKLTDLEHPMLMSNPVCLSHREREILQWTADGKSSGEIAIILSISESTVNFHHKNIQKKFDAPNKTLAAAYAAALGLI", "assay": "Inhibition of RhlR-mediated quorum sensing system in Pseudomonas aeruginosa PAO1 assessed as inhibition of pyocyanin production at 1.25 to 20 uM incubated for 24 hrs by absorbance based assay", "details": "dose 1.25-20 µM"}, "[3]": {"assay": "Inhibition of quorum sensing system in Pseudomonas aeruginosa PAO1-gfp assessed as inhibition of GFP fluorescence expression at 1.25 to 20 uM and measured for 12 hrs at 15 mins interval by fluorescence assay", "details": "dose 1.25-20 µM"}, "[4]": {"assay": "Inhibition of quorum sensing system in Pseudomonas aeruginosa PAO1-lasB-gfp assessed as inhibition of GFP fluorescence expression at 1.25 to 20 uM and measured for 12 hrs at 15 mins interval by fluorescence assay", "details": "dose 1.25-20 µM"}, "[5]": {"assay": "Inhibition of quorum sensing system in Pseudomonas aeruginosa PAO1-pqsA-gfp assessed as inhibition of GFP fluorescence expression at 1.25 to 20 uM and measured for 12 hrs at 15 mins interval by fluorescence assay", "details": "dose 1.25-20 µM"}, "[6]": {"assay": "Inhibition of quorum sensing system in Pseudomonas aeruginosa PAO1-rhlA-gfp assessed as inhibition of GFP fluorescence expression at 1.25 to 20 uM and measured for 12 hrs at 15 mins interval by fluorescence assay", "details": "dose 1.25-20 µM"}, "[7]": {"assay": "Metal chelating activity assessed as Fe3+-compound complex formation assessed as pFe(III) value by fluorescence method"}, "Pseudomonas aeruginosa [8]": {"system": "Pseudomonas aeruginosa", "assay": "Inhibition of iron homeostasis in Pseudomonas aeruginosa PAO1 in ABTGC medium assessed as increase in iron-free pyochelin production at 1.25 to 20 uM in presence of FeCl3 by fluorescence based microplate reader analysis", "type": "functional, organism-based", "details": "dose 1.25-20 µM"}, "Pseudomonas aeruginosa [9]": {"system": "Pseudomonas aeruginosa", "assay": "Antibiofilm activity against Pseudomonas aeruginosa PAO1 fpvA-overexpressing mutant assessed as inhibition of biofilm formation at 1.25 to 20 uM incubated for 24 hrs by crystal violet staining based absorbance assay", "type": "functional, organism-based", "details": "dose 1.25-20 µM"}, "Pseudomonas aeruginosa [10]": {"system": "Pseudomonas aeruginosa", "assay": "Upregulation of pchB expression in Pseudomonas aeruginosa PAO1 at 20 uM incubated for 24 hrs by RNA sequencing analysis", "type": "functional"}, "Pseudomonas aeruginosa [11]": {"system": "Pseudomonas aeruginosa", "assay": "Upregulation of pvdE expression in Pseudomonas aeruginosa PAO1 at 20 uM incubated for 24 hrs by RNA sequencing analysis", "type": "functional"}, "Pseudomonas aeruginosa [12]": {"system": "Pseudomonas aeruginosa", "assay": "Upregulation of pvdJ expression in Pseudomonas aeruginosa PAO1 at 20 uM incubated for 24 hrs by RNA sequencing analysis", "type": "functional"}, "Pseudomonas aeruginosa [13]": {"system": "Pseudomonas aeruginosa", "assay": "Downregulation of rhl expression in Pseudomonas aeruginosa PAO1 at 20 uM incubated for 24 hrs by RNA sequencing analysis", "type": "functional"}, "Pseudomonas aeruginosa [14]": {"system": "Pseudomonas aeruginosa", "assay": "Downregulation of pilD expression in Pseudomonas aeruginosa PAO1 at 20 uM incubated for 24 hrs by RNA sequencing analysis", "type": "functional"}, "Pseudomonas aeruginosa [15]": {"system": "Pseudomonas aeruginosa", "assay": "Downregulation of pilT expression in Pseudomonas aeruginosa PAO1 at 20 uM incubated for 24 hrs by RNA sequencing analysis", "type": "functional"}, "Pseudomonas aeruginosa [16]": {"system": "Pseudomonas aeruginosa", "assay": "Downregulation of mexA expression in Pseudomonas aeruginosa PAO1 at 20 uM incubated for 24 hrs by RNA sequencing analysis", "type": "functional"}, "Pseudomonas aeruginosa [17]": {"system": "Pseudomonas aeruginosa", "assay": "Antibacterial activity against Pseudomonas aeruginosa PAO1 in ABTGC medium assessed as bacterial growth inhibition at 1.25 to 20 uM incubated for 16 hrs", "type": "functional, organism-based", "details": "dose 1.25-20 µM"}, "L02": {"system": "L02", "assay": "Cytotoxicity against human L02 cells assessed as reduction in cell viability upto 50 uM incubated for 24 hrs by MTT assay", "type": "toxicity, cell-based", "details": "l02, 24 h"}, "[18]": {"assay": "Toxicity in Zebrafish embryo assessed as survival rate of zebrafish larvae at 10 to 200 uM and mesured upto 120 hrs post fertilization", "design": "species or system Danio rerio", "details": "in vivo, dose 10-200 µM"}, "Pseudomonas aeruginosa [19]": {"system": "Pseudomonas aeruginosa", "assay": "Synergistic antibacterial activity against Pseudomonas aeruginosa PAO1 infected in Balb/c mouse wound infection model assessed as reduction in bacterial survival rate at wounded area at 50 uM,TOP QD for 3 days in presence of Ciprofloxacin by CFU assay", "type": "functional", "details": "time 3 day"}, "Pseudomonas aeruginosa [20]": {"system": "Pseudomonas aeruginosa", "assay": "Synergistic antibacterial activity against Pseudomonas aeruginosa PAO1 infected in Balb/c mouse wound infection model assessed as healing degree of wound at 50 uM […],TOP QD for 3 days in presence of Ciprofloxacin", "type": "functional, organism-based", "details": "time 3.0 day"}, "Pseudomonas aeruginosa [21]": {"system": "Pseudomonas aeruginosa", "assay": "Synergistic antibacterial activity against Pseudomonas aeruginosa PAO1 infected in Balb/c mouse wound infection model assessed as reduction in bacterial survival rate at wounded area at 50 uM,TOP QD for 3 days in presence of Tobramycin by CFU assay", "type": "functional", "details": "time 3 day"}, "Pseudomonas aeruginosa [22]": {"system": "Pseudomonas aeruginosa", "assay": "Synergistic antibacterial activity against Pseudomonas aeruginosa PAO1 infected in Balb/c mouse wound infection model assessed as healing degree of wound at 50 uM,TOP QD for 3 days and measured after 9 days in presence of Tobramycin", "type": "functional, organism-based", "details": "time 3.0 day"}, "[23]": {"assay": "Toxicity in Balb/c mouse wound infection model infected with Pseudomonas aeruginosa PAO1 assessed as body weight change at 50 uM,TOP for 3 days in Ciprofloxacin", "details": "in vivo, topical_or_ocular, 72 h, time 3 day"}, "[24]": {"assay": "Toxicity in Balb/c mouse wound infection model infected with Pseudomonas aeruginosa PAO1 assessed as body weight change at 50 uM,TOP for 3 days in Tobramycin", "details": "in vivo, topical_or_ocular, 72 h, time 3 day"}, "[25]": {"assay": "Toxicity in Balb/c mouse wound infection model infected with Pseudomonas aeruginosa PAO1 assessed as morphological changes in liver at 50 uM,TOP for 3 days in Ciprofloxacin by H and E staining based analysis", "type": "tissue-based", "details": "in vivo, topical_or_ocular, 72 h, time 3 day"}, "[26]": {"assay": "Toxicity in Balb/c mouse wound infection model infected with Pseudomonas aeruginosa PAO1 assessed as morphological changes in spleen at 50 uM,TOP for 3 days in Tobramycin by H and E staining based analysis", "type": "tissue-based", "details": "in vivo, topical_or_ocular, 72 h, time 3 day"}, "[27]": {"assay": "Toxicity in Balb/c mouse wound infection model infected with Pseudomonas aeruginosa PAO1 assessed as morphological changes in lung at 50 uM,TOP for 3 days in Tobramycin by H and E staining based analysis", "type": "tissue-based", "details": "in vivo, topical_or_ocular, 72 h, time 3 day"}},
  "note": "Calls of active or inactive are those of the source. The calls are words filed in the database; no cut-off is given here.",
  "data": [
    {"smiles": "Cc1ccc2oc(=O)cc(OCCCCCCC(=O)NO)c2c1", "values": [
      {"measurement": "inhibition", "setting": "[1]", "result": "Dose-Dependent Effect"},
      {"measurement": "inhibition", "setting": "[2]", "result": "inactive"},
      {"measurement": "inhibition", "setting": "[3]", "result": "inactive"},
      {"measurement": "inhibition", "setting": "[4]", "result": "Dose-Dependent Effect"},
      {"measurement": "inhibition", "setting": "[5]", "result": "Dose-Dependent Effect"},
      {"measurement": "inhibition", "setting": "[6]", "result": "inactive"},
      {"measurement": "pFe(III)", "setting": "[7]", "result": 20.1},
      {"measurement": "inhibition", "setting": "Pseudomonas aeruginosa [8]", "result": "Active"},
      {"measurement": "inhibition", "setting": "Pseudomonas aeruginosa [9]", "result": "inactive"},
      {"measurement": "Activity", "setting": "Pseudomonas aeruginosa [10]", "result": "Active"},
      {"measurement": "Activity", "setting": "Pseudomonas aeruginosa [11]", "result": "Active"},
      {"measurement": "Activity", "setting": "Pseudomonas aeruginosa [12]", "result": "Active"},
      {"measurement": "Activity", "setting": "Pseudomonas aeruginosa [13]", "result": "Active"},
      {"measurement": "Activity", "setting": "Pseudomonas aeruginosa [14]", "result": "Active"},
      {"measurement": "Activity", "setting": "Pseudomonas aeruginosa [15]", "result": "Active"},
      {"measurement": "Activity", "setting": "Pseudomonas aeruginosa [16]", "result": "Active"},
      {"measurement": "Activity", "setting": "Pseudomonas aeruginosa [17]", "result": "inactive"},
      {"measurement": "Activity", "setting": "L02", "result": "Non-Toxic"},
      {"measurement": "Activity", "setting": "[18]", "result": "Non-Toxic"},
      {"measurement": "Activity", "setting": "Pseudomonas aeruginosa [19]", "result": 3.19, "unit": "%"},
      {"measurement": "Activity", "setting": "Pseudomonas aeruginosa [20]", "result": "Active"},
      {"measurement": "Activity", "setting": "Pseudomonas aeruginosa [21]", "result": 1.78, "unit": "%"},
      {"measurement": "Activity", "setting": "Pseudomonas aeruginosa [22]", "result": "Active"},
      {"measurement": "Activity", "setting": "[23]", "result": "Non-Toxic"},
      {"measurement": "Activity", "setting": "[24]", "result": "Non-Toxic"},
      {"measurement": "Activity", "setting": "[25]", "result": "Non-Toxic"},
      {"measurement": "Activity", "setting": "[26]", "result": "Non-Toxic"},
      {"measurement": "Activity", "setting": "[27]", "result": "Non-Toxic"}
    ]}
  ]
}
